Data taken from US20060194293A1, “Rb1 gene induced protein (rb1cc1) and gene” (Tokuhiro CHANO, priority 2003, published 2006).
Entries after “also recorded” stand apart in the source; their conditions may differ.

Columns and labels:
Assay type in all cases: cell-based, human
[1] = test system: U-2/Neo8 cells; assay: Cell proliferation under doxorubicin treatment, control gene-introduced cells; details: U-2/Neo8 control cells
Description: (§1) The effect on cell proliferation in the presence of 450 ng/mL of the anticancer agent doxorubicin was examined.

[2] = test system: RB1CC1 gene; assay: Northern blot of RB1CC1 gene expression after doxorubicin, U-2 OS/DX580 cells; details: U-2 OS/DX580 MDR variants, doxorubicin treatment
Description: (§2) Expression levels of RB1CC1 gene and MDR1 gene in parental U2 OS cells and several kinds of MDR-variant cells were analyzed by Northern blotting. A probe hybridizing between nucleotide numbers 4190 and 4654 of the RB1CC1 gene sequence was used as a probe for analysis of RB1CC1 gene, and a probe hybridizing between nucleotide numbers 834 and 1119 of MDR1 gene was used for MDR1 gene. Probes were used after labeling with α-32P-dCTP in which phosphorus at an alpha position of […] was substituted with a radioactive isotope. Glyceraldehyde-3-phosphate dehydrogenase (GAPDH) was used as the indicator of mRNA expression.
(§3) mRNA expression levels of cells that were obtained over time in the above-mentioned experiment were analyzed. Analysis was conducted for the novel gene RB1CC1 gene of the present invention, the RB1 gene and the MDR1 gene, respectively, in the same manner as Example 3 with the exception that expression levels of the RB1 gene were detected using a probe hybridizing to the site at nucleotides 336 to 675 of the nucleotide sequence of human RB1 mRNA. […] In contrast, in MDR variants of U-2 OS cells (U-2 OS/DX580) and U-2 OS cells introduced with MDR1 gene (U-2/DOXO 35), expression level of RB1CC1 gene was not inhibited by treatment with doxorubicin, and expression of RB1CC1 gene increased. […]

[3] = test system: U-2 OS/DX580 cells; assay: Cell proliferation under doxorubicin treatment, MDR variant cells; details: U-2 OS/DX580 MDR variants, 450 ng/mL doxorubicin
Description: as §1

[4] = test system: RB1CC1 gene; assay: Northern blot of RB1CC1 gene expression after doxorubicin, U-2/Neo8 cells; details: U-2/Neo8 control cells, doxorubicin treatment, over time
Description: as §2, §3

[5] = test system: RB1CC1 gene; assay: Northern blot of RB1CC1 gene expression after doxorubicin, parental U-2 OS cells; details: doxorubicin treatment, over time
Description: as §2, §3

[6] = test system: U-2 OS cells; assay: Cell proliferation under doxorubicin treatment, parental cells; details: parental U-2 OS cells
Description: as §1

[7] = test system: U-2/DOXO 35 cells; assay: Cell proliferation under doxorubicin treatment, MDR1 gene-introduced cells; details: U-2/DOXO 35 (MDR1 gene introduced), 450 ng/mL doxorubicin
Description: as §1

[8] = test system: RB1CC1 gene; assay: Northern blot of RB1CC1 gene expression after doxorubicin, U-2/DOXO 35 cells; details: U-2/DOXO 35 (MDR1 gene introduced), doxorubicin treatment
Description: as §2, §3

## COc1cccc2c1C(=O)c1c(O)c3c(c(O)c1C2=O)C[C@@](O)(C(=O)CO)C[C@@H]3O[C@H]1C[C@H](N)[C@H](O)[C@H](C)O1 [doxorubicin]
[1]; 450 ng/mL doxorubicin
  effect on cell proliferation: suppressed
[1]; doxorubicin treatment
  cell death: induced cell death
[2]
  expression of the RB1CC1 gene (mRNA): did not exhibit an inhibitory effect; also recorded: not inhibited
[3]
  effect on cell proliferation: did not exhibit an inhibitory effect; also recorded: had no effect
[4]
  expression of the RB1CC1 gene (mRNA): lowered expression; also recorded: decreased over time
[5]
  expression of the RB1CC1 gene (mRNA): lowered expression; also recorded: decreased over time
[6]; 450 ng/mL doxorubicin
  effect on cell proliferation: suppressed
[6]; doxorubicin treatment
  cell death: induced cell death
[7]
  effect on cell proliferation: had no effect
[8]
  expression of the RB1CC1 gene (mRNA): increased; also recorded: not inhibited
